Data reported in patent publication US12233073B2, “Skin care formulations and skin cancer treatment” (Regents of the University of Minnesota, priority 2017, dated 2025).

Columns and labels:
[1] = target: T1, PRPK in A431 lysates (Homo sapiens, UniProt Q96S44); assay: Ex vivo binding assay, drug-conjugated Sepharose 4B beads with A431 cell lysates; conditions: pull-down with drug-conjugated Sepharose 4B beads
T1 construct: endogenous in cells; host or cells: A431
T1 sequence (Q96S44 1-253): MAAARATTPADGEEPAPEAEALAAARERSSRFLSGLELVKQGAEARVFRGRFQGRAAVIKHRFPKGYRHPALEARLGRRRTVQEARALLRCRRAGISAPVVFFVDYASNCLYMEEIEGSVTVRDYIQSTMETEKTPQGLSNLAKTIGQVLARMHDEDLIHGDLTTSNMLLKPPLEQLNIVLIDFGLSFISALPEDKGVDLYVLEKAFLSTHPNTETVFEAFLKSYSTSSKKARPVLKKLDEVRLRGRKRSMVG
Method: (§1) The interaction between rocuronium bromide and PRPK, and the inhibition of PRPK phosphorylation by rocuronium bromide was evaluated. In vitro and ex vivo binding assays were conducted using GST-PRPK or A431 cell lysates and rocuronium bromide-conjugated Sepharose 4B beads. FIG. 13A is a photograph illustrating a chromatographic plate showing the interaction and binding of PRPK with rocuronium bromide in A431 cells. FIG. 13B is a photograph illustrating a chromatographic plate showing the interaction and binding of rocuronium bromide with wildtype PRPK recombinant GST protein.
as §1, with “betamethasone 17-valerate” for “rocuronium bromide”, “using recombinant” for “using”, “betamethasone 17-valerate-conjugated” for “rocuronium bromide-conjugated”, “14A” for “13A”, “14B” for “13B”

[2] = system: SSL-induced skin carcinogenesis in SKH-1 hairless mice; assay: Chronic SSL-induced skin carcinogenesis in SKH-1 hairless mice (early-stage and late-stage prevention models); type: in vivo, mouse; conditions: for SSL-induced neovascularization in tumor areas: early- and late-stage models (FIGS. 23, 24A, 24B); for SSL-induced skin carcinogenesis: topical cream 0.1% or 1%; for Ki-67 expression / PRPK phosphorylation: skin staining, FIGS. 23, 24A, 24B
Method: The effectiveness of rocuronium bromide (EXAMPLES 11 and 12) and betamethasone 17-valerate (EXAMPLE 13) in mouse models of chronic sUV-induced skin carcinogenesis was evaluated. Female SKH-1 hairless mice (5 weeks old, Charles River, Burlington, MA) were used. Skin carcinogenesis was induced by SSL-irradiation source lamps. […] For topical treatment to the dorsal mouse skin, cream (oil-in-water emulsions) containing 0.1% or 1% (0.1 or 1 mg in 100 μl) of rocuronium bromide or betamethasone 17-valerate were prepared. The models included early-stage prevention models (EXAMPLE 11) and a late-stage prevention models (EXAMPLES 12 and 13). […] SSL treatment was for 15 weeks and the drug cream was continued for 29 weeks. In the late-stage model, mice received SSL for 15 weeks at which time they began receiving topical application with rocuronium bromide or betamethasone 17-valerate. For the early stage model, SKH-1 hairless mice were divided into groups as follows: Groups 1 and 2 were negative control groups, untreated and treated with only cream vehicle with no SSL exposure; Group 3=1% rocuronium bromide; Group 4=SSL alone without cream; Group 5=SSL with cream only; Group 6=0.1% rocuronium bromidein cream with SSL; Group 7=1% rocuronium bromide in cream with SSL. For the late stage models, groups were as follows: Groups 8 and 9 were negative control groups, untreated and treated with only cream vehicle with no SSL exposure; Group 10=1% rocuronium bromide only; Group 11=1% betamethasone 17-valerate only; Group 12=SSL alone with cream; Group 13=SSL with 0.1% rocuronium bromide; Group 14=1% rocuronium bromide in cream with SSL; Group 15=0.1% betamethasone 17-valerate in cream with SSL; and Group 16=1% […] betamethasone 17-valerate in cream with SSL. An antibiotic ointment was applied to the eyes of each mouse prior to SSL exposure and body weight and tumor volume were measured each week.

[3] = system: IFN-γ, IL-12 and PGE2; assay: Immune system markers (IFN-γ, IL-12, PGE2, T-cell markers) in the SSL-induced prevention models; type: in vivo, mouse; conditions: for T cell infiltrates in mouse skin: CD3, CD4 markers; for production of IFN-γ in mouse serum: ELISA; for production of IFN-γ in mouse serum / production of IL-12 in mouse serum / production of IL-12 in mouse skin: SSL-induced prevention models; for PGE2 levels in the skin: SSL-exposed skin
From the text: Exposure to UV radiation suppresses the immune response and UV-induced immune suppression is a major risk factor for skin cancer. In particular, UV exposure induces the production of Th2-associated cytokines and interferes with antigen presentation to Th1 cells producing IFN-γ. To determine whether rocuronium bromide or betamethasone 17-valerate affects the immune system response, the level of immune system markers, including interferon-γ (IFN-γ), interleukin-12 (IL-12) and prostaglandin E2 (PGE2), in mouse serum and the T-cell markers, CD3 and CD4, were examined. CD3 is associated with the T-cell receptor (TCR) and is essential in signal transduction in T cells following TCR activation. Tumor microenvironment-mediated down-regulation of TCR-associated signaling leads to the inhibition of T cell function and antitumor immunity in the tumor-bearing host. Very few T cells are observed in the epidermis and dermis of solar UV-induced SCCs.
SSL-induced immunosuppressive responses are associated with production of Th2-related cytokines (IL-10) and disturbance of antigen presentation to Th1 cells producing IFN-γ. Therefore, SSL-induced immunosuppression could be prevented by the Th1 cytokine, IFN-γ. An enzyme-linked immunosorbent assay (ELISA) was performed to examine IFN-γ levels in mouse serum. FIG. 25A is a chart comparing the effect of rocuronium bromide treatment on enhancement of IFN-γ production by immune cells in an early-stage SSL-induced prevention model. IL-12 is an immunoregulatory cytokine to reverse UV-induced DNA damage and immunosuppression, and also regulates the function and development of Th1 type cells by stimulating IFN-γ production. Furthermore, treatment with recombinant IL-12 reversed the UV-induced immunosuppression. Additionally, PGE2 plays a key role as an activator of UV-induced immunosuppression through its down-regulation of the levels of IL-12. Thus, the effects of PRPK inhibitors on SSL-induced changes on the immunoregulatory cytokines, IL-12 and PGE2, were investigated.

[4] = system: PRPK; assay: SSL-induced phosphorylation of PRPK in JB6 cells; type: cell-based; conditions: increasing concentrations added to the medium
Method: The effect of the binding of rocuronium bromide to PRPK on SSL-induced phosphorylation of PRPK was evaluated. FIG. 13C is a photograph illustrating a chromatographic plate showing the reduction in SSL-induced phosphorylation of PRPK in JB6 cells with increasing concentrations of rocuronium bromide, added into the medium. Thus, rocuronium bromide inhibited sUVL-induced phosphorylation of PRPK.
The effect of the binding of betamethasone 17-valerate to PRPK on SSL-induced phosphorylation of PRPK was evaluated. FIG. 14C is a photograph illustrating a chromatographic plate showing the reduction in SSL-induced phosphorylation of PRPK in JB6 cells with an increasing concentration of betamethasone 17-valerate, added to the medium. Thus, betamethasone 17-valerate inhibited SSL-induced phosphorylation of PRPK.

| Structure (SMILES) | binding to PRPK in A431 lysates [1] | SSL-induced neovascularization in tumor areas [2] | tumor number ([2]; late-stage model) | tumor volume ([2]; late-stage model) | SSL-induced skin carcinogenesis ([2]; late-stage model) | Ki-67 expression [2] | PRPK phosphorylation [2] | T cell infiltrates in mouse skin [3] | production of IFN-γ in mouse serum [3] | PGE2 levels in the skin [3] | production of IL-12 in mouse serum [3] | production of IL-12 in mouse skin [3] | SSL-induced phosphorylation of PRPK [4] | levels of COX-2 in SKH-1 hairless mouse skin ([2]; FIGS. 20C, 21C) | levels of MMP-9 in SKH-1 hairless mouse skin ([2]; FIGS. 20C, 21C) | levels of cyclin D1 in SKH-1 hairless mouse skin ([2]; FIGS. 20C, 21C) | levels of phosphorylated PRPK in SKH-1 hairless mouse skin ([2]; FIGS. 20C, 21C) | tumor volume ([2]; early-stage model (FIG. 20A)) | tumor number ([2]; early-stage model (FIG. 20B)) | SSL-induced skin carcinogenesis ([2]; early-stage model) |
| --- | --- | --- | --- | --- | --- | --- | --- | --- | --- | --- | --- | --- | --- | --- | --- | --- | --- | --- | --- | --- |
| CCCCC(=O)O[C@]1(C(=O)CO)[C@@H](C)C[C@H]2[C@@H]3CCC4=CC(=O)C=C[C@]4(C)[C@@]3(F)[C@@H](O)C[C@@]21C [betamethasone 17-valerate] | binds | inhibited | reduces | reduces | reduced | inhibited | inhibited | dense T cell infiltrates | increased | decreased | increased | increased | inhibited | – | – | – | – | – | – | – |
| C=CC[N+]1([C@H]2C[C@H]3[C@@H]4CC[C@H]5C[C@H](O)[C@@H](N6CCOCC6)C[C@]5(C)[C@H]4CC[C@]3(C)[C@H]2OC(C)=O)CCCC1 [rocuronium bromide] | binds | inhibited | decreased | decreased | reduced | inhibited | inhibited | dense T cell infiltrates | increased | decreased | increased | increased | inhibited | suppressed | suppressed | suppressed | suppressed | decreased | decreased | reduced |
